Measured values published in patent US20230043678A1, “USE OF 5-METHYLTETRAHYDROFOLATE” (priority 2019, published 2023).
Where two headings read alike, the source gives them in different places.

Legend:
[1] = tested on: zebrafish embryos
Description: Transgenic zebrafish (fli-1:EGFP) were from the Model Animal Research Center of Nanjing University. Adult zebrafish aged less than 1 year were used for experiment and fed at a water pH value of 7±0.2, a temperature around 28° C. and a ratio of illumination to darkness of 14 h:10 h, and with Artemia salina eggs twice a day. Three zebrafish, one female, two males, were placed in a spawning box the night before and eggs were collected the next morning. Fish eggs were placed in an embryo culture medium (prepared with 0.2 g/L of sea salt) and cultured at 28° C.
Zebrafish embryos were cultured in 24-well plates with 10 embryos per well at 2 hpf in a dosing manner, drug solutions of the above concentrations in the table were separately added, termination was conducted at 8 hpf, and the embryos were washed and transferred to an egg solution for continuous culture to 72 hpf. Dead embryos were cleaned up in time. Each experiment was conducted in triplicate.
A phenotype of malformation was observed, the number of all abnormal zebrafish where the malformation was present was recorded and a malformation rate and a rescue rate of each group were calculated. Morphological defects, a heart rate, cardiac morphology and other indicators were observed and evaluated by an SMZ745T inverted stereomicroscope.

[2] = tested on: zebrafish embryos; details: for embryo development: 8 hpf; for heart shape and lower intestinal network blood vessels: 72 hpf
[3] = tested on: zebrafish embryos; remark: listed apart in the source
Description: (§1) Transgenic zebrafish (fli-1:EGFP) were from the Model Animal Research Center of Nanjing University. Adult zebrafish aged less than 1 were used for experiment and fed at a water pH value of 7±0.2, a temperature around 28° C. and a ratio of illumination to darkness of 14 h:10 h, and with Artemia salina eggs twice a day. Three zebrafish, one female, two males, were placed in a spawning box the night before and eggs were collected the next morning. Fish eggs were placed in an embryo culture medium (prepared with 0.2 g/L of sea salt) and cultured at 28° C. […] Dead embryos were cleaned up in time. A phenotype of malformation was observed, the number of all abnormal zebrafish where the malformation was present was recorded and a malformation rate and a rescue rate of each group were calculated. Morphological defects, a heart rate, cardiac morphology and other indicators were observed and evaluated by an SMZ745T inverted stereomicroscope.

[4] = tested on: zebrafish embryos; remark: listed apart in the source
Description: A table was listed below for details.
5-Selected concentrations of methyltetrahydrofolate in the experiment were recorded in the table.

[5] = tested on: zebrafish embryos; remark: listed apart in the source
Description: Each experiment was conducted in triplicate. Zebrafish embryos were administrated at 2 h post fertilization (2 hpf) and termination was conducted at 72 hpf. The number of deaths in each group was recorded at 8, 24, 48 and 72 hpf. No food was fed during a dosing period, and the dead embryos were cleaned up in time.

[6] = tested on: transcription factors (Nkx2.5, amhc, vmhc, hand2, has2, mef2a, mef2c, bmp2b, ephrinB2, ephB4) in zebrafish embryos; experiment: qRT-PCR expression of transcription factors during development of zebrafish embryos (Example 4); format: in vivo; details: 8 mM L-5-MTHF-Ca, 24 and 48 hpf
Description: In order to explore an effect of folic acid on epigenetics during development of the zebrafish embryos, the zebrafish embryos at different developmental stages were collected for testing. […] A fluorescent dye SYBR Green was used in the qRT-PCR experiment. The qRT-PCR was conducted according to the instructions of an SYBR Green qPCR Master Mix kit and a detection was conducted on an ABI (HT 7900) PCR instrument. […] An expression of β-actin was used as an internal reference and relative expression levels of other genes were calculated by a ΔΔCt method.

[7] = tested on: heart of fetal mice; experiment: Effects of folic acid and 5-methyltetrahydrofolate on heart development of fetal/neonatal mice, histology (Example 10)
Description: 75 7-week-old female C57BL/6J mice and 25 8-week-old male C57BL/6J mice were provided by Shanghai Lingchang Biotechnology Co., Ltd. with a certificate number of SCXK (Shanghai) 2018-0003. […] The female mice were randomly divided into 5 groups according to body weight: a solvent control group, a folic acid (151.66 μg/kg) group, a folic acid (303.32 μg/kg) group, a calcium 5-methyltetrahydrofolate (converted to folic acid, 151.66 μg/kg) group and a calcium 5-methyl tetrahydrofolate (converted to folic acid, 303.32 μg/kg) group. 1.1275 unit mass of the calcium 5-methyltetrahydrofolate equaled to 1 unit mass of the folic acid.
15 mice were in each group and numbered by a toe clipping method. The mice were intragastrically administrated once a day on the second day after grouping. One week after the pre-administration, male and female mice were caged at a ratio of […], a vaginal plug was observed every day from the next day, and a day when the vaginal plug was seen was recorded as day 0.5 of pregnancy. After 14 days of caging, the female mice stopped the administration, the male mice were removed, and the pregnant female mice were fed alone until litter.
After the detection, thoracic and abdominal cavities of the mice were dissected, cardiac morphology and beating were observed under a stereoscopic microscope (SMZ168, Motic, Xiamen, Fujian, China), and photographs and video recordings were taken (Motic Image Plus 3.0, Motic, Xiamen, Fujian, China). The mice were sacrificed and the hearts, the livers, the kidneys and the lungs were harvested. The hearts and the livers of the neonatal mice were selected from each group and fixed with 4% paraformaldehyde, the fixed hearts and livers were embedded in paraffin, the embedded hearts and livers were sliced and the slices were stained with H&E. A half of the other tissues were immersed in RNA later for fixation and the other half were directly immersed in liquid nitrogen and frozen for a subsequent experiment.
1-day-old neonatal mice were sacrificed, the hearts were taken and fixed with 4% paraformaldehyde, the fixed hearts were embedded in paraffin, the embedded hearts were sliced, the slices were stained with H&E and pictures were taken under a normal microscope.

[8] = tested on: zebrafish embryos; details: 6 mM FA + 10 mM L-5-MTHF-Ca
Description: Transgenic zebrafish (fli-1:EGFP) were from the Model Animal Research Center of Nanjing University. Adult zebrafish aged less than 1 were used for experiment and fed at a water pH value of 7±0.2, a temperature around 28° C. and a ratio of illumination to darkness of 14 h:10 h, and with Artemia salina eggs twice a day. Three zebrafish, one female, two males, were placed in a spawning box the night before and eggs were collected the next morning. Fish eggs were placed in an embryo culture medium (prepared with 0.2 g/L of sea salt) and cultured at 28° C. […] Dead embryos were cleaned up in time. Each experiment was conducted in triplicate. […] A phenotype of malformation was observed, the number of all abnormal zebrafish where the malformation was present was recorded and a malformation rate and a rescue rate of each group were calculated. Morphological defects, a heart rate, cardiac morphology and other indicators were observed and evaluated by an SMZ745T inverted stereomicroscope.

[9] = tested on: zebrafish embryos; experiment: Teratogenic effect of folic acid on zebrafish embryos (Example 3)
Description: as §1

[10] = Group D: calcium 5-methyltetrahydrofolate (converted to folic acid, 151.66 μg/kg) intragastric
[11] = Group E: calcium 5-methyltetrahydrofolate (converted to folic acid, 303.32 μg/kg) intragastric

## CCO [EtOH, ethanol]
[1]; […] EtOH
  survival rate: significantly different from that of the control group
[1]; zebrafish, in vivo
  heart rate: led to a malformed phenotype of bradycardia in zebrafish embryos
  lower intestinal network blood vessels: led to developmental disorders of lower intestinal network blood vessels of the zebrafish
  pericardium edema: led to a malformed phenotype of pericardium edema in zebrafish embryos

## C=O [HCHO, formaldehyde]
[2]; 30 mM HCHO
  lethality and teratogenicity to zebrafish: lethal but not teratogenic to zebrafish
  pericardium edema and heart rate (48 hpf), body length (72 hpf): had no effect on the pericardium edema, the heart rate and the body length of the zebrafish
  survival rate of embryos: severely lead to a low survival rate of embryos
  embryo development: delayed development of the zebrafish embryos
  heart shape and lower intestinal network blood vessels: normal heart shape and normal development of lower intestinal network blood vessels

## CN(Cc1cnc2nc(N)nc(N)c2n1)c1ccc(C(=O)N[C@@H](CCC(=O)O)C(=O)O)cc1 [MTX, methotrexate]
[3]; 1.5 mM MTX
  pericardium edema and 10 s heart rate (48 hpf), body length (72 hpf): seriously led to pericardium edema, bradycardia, and a shortened body length of zebrafish
[3]; 1.5 mM MTX, 6-10 hpf
  survival rate of embryos: lower than 0.1
[3]; 1.5 mM MTX, 24 hpf
  embryo phenotype: led to hypoplasia and deformities such as small heads and short tails of zebrafish
[3]; 1.5 mM MTX, 48 hpf
  embryo phenotype: led to body bending, intersegmental vascular hypoplasia and pericardium edema of zebrafish
[3]; 1.5 mM MTX, 72 hpf
  embryo phenotype: led to a short body length and lower intestinal network vessel hypoplasia
[3]; MTX group (1.5 mM)
  Malformation rate: 100%

## COc1cccc2c1cc([N+](=O)[O-])c1c(C(=O)O)cc3c(c12)OCO3 [aristolochic acid A]
[4]; 1-5 μM aristolochic acid A
  pericardium edema and 10 s heart rate (48 hpf), body length (72 hpf): seriously led to pericardium edema, bradycardia, and a shortened body length in zebrafish
[4]; 1-5 μM aristolochic acid A, 8 hpf and 24 hpf
  embryo phenotype: did not lead to obvious embryonic development delay, malformation and death
[4]; 2-5 μM aristolochic acid A
  survival rate of embryos: seriously reduce a survival rate of embryos
[4]; aristolochic acid A, 72 hpf
  embryo phenotype: showed a complete deficiency of development of the lower intestinal network blood vessels of the zebrafish
[4]; aristolochic acid A, increasing concentration, 48 hpf
  embryo phenotype: gradually showed pericardium edema, a slowed heart rate, curved bodies, a disappeared systemic blood flow, hematocele, yolk sac opacity

## Calcium 5-Methyltetrahydrofolate [L-5-MTHF-Ca]
[5]; 10 mM L-5-MTHF-Ca, dosed 2 hpf to 72 hpf
  embryo survival rate: did not affect an embryo survival rate
[5]; 10 mM, 48 hpf, vs control group
  heart rate of zebrafish embryos: no difference in the heart rate
[5]; 10 mM, 72 hpf
  heart shape and lower intestinal network blood vessels: the heart in each group had a normal shape and the lower intestinal network blood vessels developed normally
[5]; 10 mM, 72 hpf, vs control group
  body length of zebrafish embryos: no difference
[6]
  expressions of the various genes vs normal control: did not affect the expressions of the various genes
[2]; 30 mM HCHO + 10 mM L-5-MTHF-Ca
  pericardium edema and heart rate (48 hpf), body length (72 hpf): had no effect on the pericardium edema, the heart rate and the body length of the zebrafish
  survival rate of embryos, rescue: can rescue an effect of the 30 mM HCHO on a survival rate of the embryos
  embryo development: delayed development of the zebrafish embryos
  heart shape and lower intestinal network blood vessels: normal heart shape and normal development of lower intestinal network blood vessels
[7]; 5-methyltetrahydrofolate group
  congenital heart disease in fetal mice: no congenital heart disease is found
[7]; [10]
  Development delay: 0
  Malformation cases: 0
  Sparse myocardial trabeculae: 0
  Ventricular defects/septal defects: 0
[7]; [11]
  Development delay: 0
  Malformation cases: 0
  Sparse myocardial trabeculae: 0
  Ventricular defects/septal defects: 0
[7]; low-dose and high-dose methyltetrahydrofolate groups
  heart slices (H&E) of 1-day-old neonatal mice: had intact myocardium
[4]; in vivo
  10 s heart rate (48 hpf), body length and malformation (72 hpf), rescue: could rescue malformed phenotypes of the bradycardia, the shortened body length and abnormally curved bodies
  rescue of embryonic development malformations: could rescue embryonic development malformations induced by 2 and 4 mM Pb(NO3)2
  survival rate of embryos, rescue: did not rescue an effect of the 2 and 4 mM Pb(NO3)2 on a survival rate of the embryos
[4]; zebrafish, in vivo
  embryo phenotype: did not lead to obvious embryonic development delay, malformation and death
  pericardium edema and 10 s heart rate (48 hpf), body length (72 hpf), rescue: could rescue malformed phenotypes of the pericardium edema, the bradycardia and the shortened body length of the zebrafish to a certain extent
[3]; 1.5 mM MTX + 10 mM L-5-MTHF-Ca
  pericardium edema and 10 s heart rate (48 hpf), body length (72 hpf), rescue: could rescue malformed phenotypes of the pericardium edema, the bradycardia and the shortened body length
  rescue of embryonic development malformations: could rescue embryonic development malformations induced by 1.5 mM MTX
  survival rate of embryos, rescue: no significant difference from that of a control group
[3]; 1.5 mM MTX after adding L-5-MTHF-Ca (10 mM)
  Malformation rate: 10%
[8]
  10 s heart rate (48 hpf) and body length (72 hpf), rescue: could rescue malformed phenotypes of the bradycardia and the shortened body length
  survival rate of embryos, rescue: can rescue an effect of the 6 mM FA on a survival rate of the embryos
[8]; 8 hpf
  embryo development: delayed development of the zebrafish embryos
[8]; 24 hpf
  embryo phenotype: alleviated the malformation
[8]; 48 hpf
  embryo phenotype: led to pericardium edema, dyspigmentation, and intersegmental vascular hypoplasia of zebrafish
  pericardium edema, rescue: could not rescue the pericardium edema
[8]; 72 hpf
  embryo phenotype: led to developmental disorders of lower intestinal network blood vessels of the zebrafish
[1]; 0.6% EtOH + 10 mM L-5-MTHF-Ca, 48 hpf
  rate of pericardium edema, rescue: could reduce a rate of pericardium edema
[1]; 0.9% and […] EtOH + 10 mM L-5-MTHF-Ca, 48 hpf
  heart rate, rescue: could relieve bradycardia
[1]; […] EtOH + 10 mM L-5-MTHF-Ca
  survival rate, rescue: could rescue the survival rate
[1]; […] EtOH + 10 mM L-5-MTHF-Ca, 48 hpf
  pericardium edema, rescue: had no effect on relieving pericardium edema
[1]; […] EtOH + 10 mM L-5-MTHF-Ca, 72 hpf
  lower intestinal network blood vessels, rescue: failed to ameliorate the defect
[1]; high concentration ([…]) of EtOH + 10 mM L-5-MTHF-Ca
  body length, rescue: relieve a shortened body length
[9]; 10 mM L-5-MTHF-Ca in 20 mM NaHCO3, 2-72 hpf
  survival rate of zebrafish: did not affect the survival rate of zebrafish
[9]; 10 mM L-5-MTHF-Ca, 8 hpf
  embryo coverage: covered completely
[9]; 10 mM L-5-MTHF-Ca, 72 hpf
  heart shape and lower intestinal network blood vessels: normal heart shape and normal development of lower intestinal network blood vessels
